Test results taken from patent US11046700B2, “Substituted imidazo[1,2-a]pyrazines, pyrazolo[1,5-c]pyrimidines, pyrazolo[1,5-a]pyridines, and purines for the treatment of schistosomiasis” (Merck Patent GmbH, priority 2017, dated 2021).
Read-outs that look alike come from different tables or passages of the source.

Key:
Type in all cases: cell-based
[1] = test system: S. mansoni juvenile worms; assay: In vitro assay, S. mansoni juvenile worms; settings: Schistosoma mansoni, read-out: (b) Juvenile
Experimental: (§1) The routine biological assays using adult or juvenile worms and cytotoxicity assays using MRC-5 cells have been disclosed previously in Mansour, N. R., et al. (2016). “High Throughput Screening Identifies Novel Lead Compounds with Activity against Larval, Juvenile and Schistosoma mansoni PLoS Negl Trap Dis 10(4): e0004659. Cytotoxicity assays using the HepG2 cell line were carried out as described in Molecular Diversity (2015) 19, 251-261.
(b) S. mansoni juvenile worms

[2] = test system: S. mansoni adult worms; assay: In vitro assay, S. mansoni adult worms; settings: Schistosoma mansoni, read-out: (a) Adult
Experimental: as §1
(a) S. mansoni adult worms

[3] = test system: HepG2 cell line; assay: Cytotoxicity against human HepG2 cell lines
[4] = S. mansoni juvenile worms, in vitro
[5] = S. mansoni adult worms, in vitro

Row | IC50 [1, 4] | IC50 [2, 5] | Structure (SMILES) | IC50 [1] | IC50 [2] | (e) Cytotox HepG2 [3]
1 | – | – | CC(C)c1nc2cnc(-c3cccc(C(F)(F)F)c3)cn2c1-c1ccc(OP(=O)(O)O)cc1F [Example 3, 3-fluoro-4-[2-(propan-2-yl)-6-[3-(trifluoromethyl)phenyl]imidazo[1,2-a]pyrazin-3-yl]phenoxyphosphonic acid] | 130 nM | < 49 nM | 9.2 µM
2 | 90 nM | 42 nM | CC(C)c1nc2cnc(-c3cccc(C(F)(F)F)c3)cn2c1-c1c(F)cc(O)cc1F [Example 19, 3,5-difluoro-4-[2-(propan-2-yl)-6-[3-(trifluoromethyl)phenyl]imidazo[1,2-a]pyrazin-3-yl]phenol] | – | – | 7.5 µM
3 | 51 nM | 37 nM | CC(C)c1nc2cnc(-c3cccc(C(F)(F)F)c3)cn2c1-c1ccc2[nH]ncc2c1F [Example 21, 4-fluoro-5-{2-propan-2-yl-6-[3-trifluoromethylphenyl]imidazo[1,2-a]pyrazin-3-yl}-1H-indazole] | – | – | 15.1 µM
4 | < 12 nM | 22 nM | CC(C)c1nn2cnc(-c3cccc(C(F)(F)F)c3)cc2c1-c1c(F)cc(O)cc1F [Example 24, 3,5-difluoro-4-(2-isopropyl-5-(3-(trifluoromethyl)phenyl)pyrazolo[1,5-c]pyrimidin-3-yl)phenol] | – | – | 8.4 µM
5 | < 12 nM | 21 nM | COc1ccc(-c2c(C(F)(F)F)nc3cnc(-c4cccc(C(F)(F)C(F)(F)F)c4)cn23)cc1O [Example 30, 2-methoxy-5-[2-(trifluoromethyl)-6-[3-(pentafluoroethyl)phenyl]imidazo[1,2-a]pyrazin-3-yl]phenol] | – | – | 11.1 µM
6 | 80 nM | 56 nM | CC1(c2nc3cnc(-c4ccc(F)c(C(F)(F)F)c4)cn3c2-c2c(F)cc(O)cc2F)CC1 [Example 33, 3,5-difluoro-4-[2-(1-methyl-cycloprop-1-yl)-6-[4-fluoro-3-(trifluoromethyl)phenyl]imidazo[1,2-a]pyrazin-3-yl]phenol] | – | – | 7.9 µM
7 | 73 nM | 59 nM | Oc1cc(F)c(-c2c(C3CCC3)nc3cnc(-c4ccc(F)c(C(F)(F)F)c4)cn23)c(F)c1 [Example 35, 4-(2-cyclobutyl-6-(4-fluoro-3-(trifluoromethyl)phenyl)imidazo[1,2-a]pyrazin-3-yl)-3,5-difluorophenol] | – | – | 5.7 µM
8 | 51 nM | 53 nM | CCc1nc2cnc(-c3ccc(F)c(C(F)(F)F)c3)cn2c1-c1c(F)cc(O)cc1F [Example 36, 3,5-difluoro-4-[2-ethyl-6-[4-fluoro-3-(trifluoromethyl)phenyl]imidazo[1,2-a]pyrazin-3-yl]phenol] | – | – | 8.3 µM
9 | < 12 nM | 24 nM | CC(C)c1nc2cnc(-c3cccc(S(F)(F)(F)(F)F)c3)cn2c1-c1c(F)cc(O)cc1F [Example 39, 3,5-difluoro-4-[2-(propan-2-yl)-6-[3-(pentafluorosulfanyl)phenyl]imidazo[1,2-a]pyrazin-3-yl]phenol] | – | – | 6.6 µM
10 | – | – | CC(C)c1nc2cnc(-c3ccc(F)c(C(F)(F)F)c3)cn2c1-c1c(F)cc(OP(=O)(O)O)cc1F [Example 40, 3,5-difluoro-4-{6-[4-fluoro-3-(trifluoromethyl)phenyl]-2-(propan-2-yl)imidazo[1,2-a]pyrazin-3-yl}phenoxyphosphonic acid] | 25 nM | 27 nM | 6.5 µM
11 | 36 nM | – | Fc1c(-c2c(C3CC3)nc3cnc(-c4cccc(S(F)(F)(F)(F)F)c4)cn23)ccc2[nH]ncc12 [Example 46, 2-cyclopropyl-3-(4-fluoro-1H-indazol-5-yl)-6-(3-(pentafluoro-λ6-sulfaneyl)phenyl)imidazo[1,2-a]pyrazine] | – | – | 20.7 µM
12 | 27 nM | 22 nM | CC(C)c1nn2cnc(-c3ccc(F)c(C(F)(F)F)c3)cc2c1-c1c(F)cc(O)cc1F [Example 47, 3,5-difluoro-4-(5-(4-fluoro-3-(trifluoromethyl)phenyl)-2-isopropylpyrazolo[1,5-c]pyrimidin-3-yl)phenol] | – | – | 8.9 µM
13 | 32 nM | 11 nM | CCc1nn2cnc(-c3ccc(F)c(C(F)(F)F)c3)cc2c1-c1c(F)cc(O)cc1F [Example 48, 4-(2-ethyl-5-(4-fluoro-3-(trifluoromethyl)phenyl)pyrazolo[1,5-c]pyrimidin-3-yl)-3,5-difluorophenol] | – | – | 9.8 µM
14 | 35 nM | 34 nM | Cc1nc2cnc(-c3cccc(C(F)(F)C(F)(F)F)c3)cn2c1-c1c(F)cc(O)cc1F [Example 49, 3,5-difluoro-4-[2-methyl-6-[3-(pentafluoroethyl)phenyl]imidazo[1,2-a]pyrazin-3-yl]phenol] | – | – | 9.3 µM
15 | 10 nM | < 12 nM | CCc1nc2cnc(-c3cccc(C(F)(F)C(F)(F)F)c3)cn2c1-c1c(F)cc(O)cc1F [Example 52, 4-[2-Ethyl-6-(3-pentafluoroethyl-phenyl)-imidazo[1,2-a]pyrazin-3-yl]-3,5-difluoro-phenol] | – | – | 8.0 µM
16 | 20 nM | 19 nM | Cc1nc2cnc(-c3ccc(F)c(C(F)(F)C(F)(F)F)c3)cn2c1-c1c(F)cc(O)cc1F [Example 53, 3,5-Difluoro-4-[6-(4-fluoro-3-pentafluoroethyl-phenyl)-2-methyl-imidazo[1,2-a]pyrazin-3-yl]-phenol] | – | – | 8.8 µM
17 | 20 nM | 19 nM | Oc1cc(F)c(-c2c(C3CC3)nc3cnc(-c4ccc(F)c(S(F)(F)(F)(F)F)c4)cn23)c(F)c1 [Example 56, 4-[2-Cyclopropyl-6-(4-fluoro-3-pentafluorosulfanyl-phenyl)-imidazo[1,2-a]pyrazin-3-yl]-3,5-difluoro-phenol] | – | – | 10.1 µM
18 | 30 nM | 17 nM | Fc1ccc(-c2cn3c(-c4ccc5[nH]ncc5c4F)c(C4CC4)nc3cn2)cc1S(F)(F)(F)(F)F [Example 57, 2-Cyclopropyl-3-(4-fluoro-1H-indazol-5-yl)-6-(4-fluoro-3-pentafluorosulfanyl-phenyl)-imidazo[1,2-a]pyrazine] | – | – | 14.8 µM
19 | 20 nM | 31 nM | CC(C)c1nn2cnc(-c3ccc(F)c(C(F)(F)C(F)(F)F)c3)cc2c1-c1ccc2[nH]ncc2c1F [Example 58, 3-(4-Fluoro-1H-indazol-5-yl)-5-(4-fluoro-3-pentafluoroethyl-phenyl)-2-isopropylpyrazolo[1,5-c]pyrimidine] | – | – | 10.8 µM
20 | – | – | O=P(O)(O)Oc1cc(F)c(-c2c(C3CC3)nc3cnc(-c4ccc(F)c(C(F)(F)F)c4)cn23)c(F)c1 [Example 62, Phosphoric acid mono-{4-[2-cyclopropyl-6-(4-fluoro-3-trifluoromethyl-phenyl)-imidazo[1,2-a]pyrazin-3-yl]-3,5-difluoro-phenyl}ester] | 3.7 nM | – | 14.8 µM
21 | 11 nM | 44 nM | Fc1ccc(-c2cn3c(-c4ccc5[nH]ncc5c4F)c(C(F)(F)F)nc3cn2)cc1S(F)(F)(F)(F)F [Example 65, 3-(4-Fluoro-1H-indazol-5-yl)-6-(4-fluoro-3-pentafluorosulfanyl-phenyl)-2-trifluoromethyl-imidazo[1,2-a]pyrazine] | – | – | 11.1 µM
22 | 5.2 nM | 5.2 nM | CC(C)c1cccc(-c2cn3c(-c4ccc5[nH]ncc5c4F)c(C(F)(F)F)nc3cn2)c1 [Example 66, 3-(4-Fluoro-1H-indazol-5-yl)-6-(3-isopropyl-phenyl)-2-trifluoromethyl-imidazo[1,2-a]pyrazine] | – | – | 12.9 µM
23 | 10 nM | 12 nM | Fc1ccc(-c2cn3c(-c4ccc5[nH]ncc5c4F)c(C(F)(F)F)nc3cn2)cc1CC(F)(F)F [Example 69, 3-(4-Fluoro-1H-indazol-5-yl)-6-[4-fluoro-3-(2,2,2-trifluoro-ethyl)-phenyl]-2-trifluoromethyl-imidazo[1,2-a]pyrazine] | – | – | 5.3 µM
24 | 21 nM | 14 nM | Fc1ccc(-c2cn3c(-c4ccc5[nH]ncc5c4F)c(C(F)(F)F)nc3cn2)cc1OC(F)(F)F [Example 71, 3-(4-Fluoro-1H-indazol-5-yl)-6-(4-fluoro-3-trifluoromethoxy-phenyl)-2-trifluoromethyl-imidazo[1,2-a]pyrazine] | – | – | 12.2 µM
25 | 23 nM | 21 nM | Fc1c(-c2c(C(F)(F)F)nc3cnc(-c4cccc(OC(F)(F)F)c4)cn23)ccc2[nH]ncc12 [Example 72, 3-(4-Fluoro-1H-indazol-5-yl)-6-(3-trifluoromethoxy-phenyl)-2-trifluoromethyl-imidazo[1,2-a]pyrazine] | – | – | 9.7 µM
26 | 5 nM | 4 nM | CC(C)c1cc(-c2cn3c(-c4ccc5[nH]ncc5c4F)c(C(C)C)nc3cn2)ccc1F [Example 74, 3-(4-Fluoro-1H-indazol-5-yl)-6-(4-fluoro-3-isopropyl-phenyl)-2-isopropyl-imidazo[1,2-a]pyrazine] | – | – | 11.0 µM
27 | 5 nM | 4 nM | CCc1nc2cnc(-c3ccc(F)c(C(C)C)c3)cn2c1-c1ccc2[nH]ncc2c1F [Example 75, 2-Ethyl-3-(4-fluoro-1H-indazol-5-yl)-6-(4-fluoro-3-isopropyl-phenyl)-imidazo[1,2-a]pyrazine] | – | – | 11.3 µM
